# Laboratory results as given in patent US7754443B2, “Serum replacement for thyroid hormone-responsive cell culture” (University of Victoria Innovation and Development …, priority 2005, dated 2010).
# Key:
# [1] = system: rat pituitary GH3 cells; experiment: TH-induced proliferation of GH3 cells, hemocytometer cell count; format: cell-based; settings: 10 nM T3, all three sera, relative to vehicle controls
# Procedure: FIG. 5 is evidence that serum from other species is suitable for use in thyroid hormone induction experiments with mammalian cells. 3.5×10^4 rat pituitary GH3 cells were plated in duplicate at a density of 2×10^4 cells/cm^2 and cultured in the presence of medium containing either 10% charcoal stripped fetal calf serum (stripped), serum from salmon parr (salmon), or Rana catesbeiana tadpoles (RTS). After 2 days, 10 nM T3 or vehicle control was added and the cells were counted 5 days later after trypsinization on a hemocytometer. The total cell numbers are indicated with vehicle control (white bars) and T3-exposed (black bars) cells in accordance with an embodiment.
# Two frog cell lines, XTC-2 cells (Machuca and Tata 1992) and XLA cells (Kanamori and Brown 1993) were obtained from J. Tata and D. Brown, respectively and grown in 70% Liebovitz medium supplemented with 10% bovine growth serum, 100 µg/ml gentamycin sulfate and 10 mM Hepes, pH 7.5 (GIBCO/Invitrogen, Grand Island, N.Y.). These cells were grown at 25° C. in air. The rat pituitary tumor GH3 cell line was obtained from R. T. Zoeller and maintained in Kaighn's modification of Ham's F 12 medium with 2 mM glutamine, 1.5 g/L sodium bicarbonate, 10% fetal bovine serum, 1,000 U/ml penicillin, and 1 mg/ml streptomycin at 37° C. in 5% CO2. […]
# [2] = system: growth hormone (GH) mRNA transcript; experiment: GH transcript levels by RT-QPCR in GH3 cells cultured in serum-containing medium; format: cell-based, rat; settings: 10 nM T3, 2 days, relative to uninduced control
# Procedure: (§1) The indicated cell types were plated at a density of 2×10^4 cells/cm^2 and cultured in the presence of medium containing either 10% charcoal stripped fetal calf serum (stripped) or Rana tadpole serum (RTS). […] All values were normalized to an invariant L8 ribosomal protein transcript. A) Relative expression levels of the control cells. B) Fold change of the GH transcript levels relative to the control, uninduced cells in accordance with an embodiment. […] The expression of TRβ and GH gene transcripts was analyzed using a MX4000 real-time quantitative polymerase chain reaction system (Stratagene, La Jolla, Calif., USA) as described previously (Crump, Werry et al. 2002) using gene specific primers (for TRβ: UP primer 5'-[NT]; DOWN primer 5'-[NT]; for GH: UP primer 5'-[NT]; DOWN primer 5'-[NT] The annealing temperature was 55° C. A standard curve for each primer pair was generated using the appropriate quantified plasmid DNA containing the target gene sequence. Quadruplicate reactions were performed for each sample and data were averaged and normalized to the expression of the control gene encoding the ribosomal protein L8.
# [3] = system: TH receptor β (TRβ) gene expression; experiment: TRβ transcript levels by RT-QPCR in XTC-2 cells cultured in serum-containing medium; format: cell-based, Xenopus laevis
# Procedure: The indicated cell types were plated at a density of 2×10^4 cells/cm^2 and cultured in the presence of medium containing either 10% charcoal stripped fetal calf serum (stripped) or Rana tadpole serum (RTS). […] All values were normalized to an invariant L8 ribosomal protein transcript. A) Relative expression levels of the control cells. B) Fold change of the TRβ transcript levels relative to the control, uninduced cells in accordance with an embodiment. […] XTC cells were plated in triplicate at a density of 2×10^4 cells/cm^2 and cultured in the presence of medium containing either 10% charcoal stripped fetal calf serum (CS) or Rana tadpole serum from different premetamorphic (VI, XII) or prometamorphic (XV, XVIII) stages (Taylor and Kollros, 1946). […] All values were normalized to an invariant L8 ribosomal protein transcript. The relative expression levels are indicated with vehicle control (white bars) and T3-exposed (black bars) cells in accordance with an embodiment. FIG. 3 is evidence that serum from other species is suitable for use in thyroid hormone induction experiments. XTC cells were plated at a density of 2×10^4 cells/cm^2 and cultured in the presence of medium containing either 10% charcoal stripped fetal calf serum (stripped), serum from salmon Parr (salmon), or neotenic salamanders (salamander). […] All values were normalized to an invariant L8 ribosomal protein transcript. […]
# [4] = system: TH receptor β (TRβ) gene expression; experiment: TRβ transcript levels by RT-QPCR in XLA cells cultured in serum-containing medium; format: cell-based, Xenopus laevis; settings: 10 nM T3, 2 days, relative to uninduced control
# Procedure: as §1, with “the TRβ” for “the GH”, “L8. […] Total RNA was isolated from these cells and analyzed for the levels of the TRβ gene by reverse transcription quantitative real time polymerase chain reaction (RT-QPCR). […]” for “L8.”
smiles,measurement,setting,value
"N[C@@H](Cc1cc(I)c(Oc2ccc(O)c(I)c2)c(I)c1)C(=O)O [T3, 3,5,3′-triiodothyronine]",GH3 proliferation on exposure to T3,[1],increased proliferation
same,GH mRNA levels on exposure to T3,[2],increase
same,TRβ levels after addition of T3,"[3]; XTC cells, 10 nM T3, in charcoal stripped serum or RTS of stages VI, XII, XV, XVIII (all cases)",robust elevation
same,TRβ mRNA levels on exposure to T3,"[3]; XTC-2 cells, 10 nM T3, 2 days, relative to uninduced control",increase
same,TRβ mRNA levels on exposure to T3,[4],increase
